The results in this text go back to patent publication US8802597B2, “Herbicidal pyrimidines” (E I du Pont de Nemours and Company, priority 2003, dated 2014).

Common to all, as to assay: Test A pre/postemergence
Type in all cases: in vivo

The test system of assay [1] is giant foxtail (Setaria faberi). An outline of the steps: (§1)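 Soil: loam blended with sand. Formulation: non-phytotoxic solvent mixture with surfactant. Timing: preemergence soil spray plus concurrent postemergence spray (plants 2–10 cm, 1–2 leaves). Readout: visual injury versus untreated controls at ~10 days, 0–100.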
Assay [2] concerns velvetleaf (Abutilon theophrasti). The method, boiled down: as §1
Assay [3] deals with redroot pigweed (Amaranthus retroflexus). The method, boiled down: as §1
In assay [4] the test system is barnyardgrass (Echinochloa crus-galli). The method, boiled down: as §1
Assay [5] has as its system morningglory (Ipomoea spp.). An outline of the steps:
as §1

Assay [6] deals with crabgrass (Digitaria sanguinalis). An outline of the steps:
as §1

The mark [7] stands for this setting: Postemergence, 125 g ai/ha, 0 to 100 scale (0 no effect, 100 complete control).
[8] abbreviates: Postemergence, 500 g ai/ha, 0 to 100 scale (0 no effect, 100 complete control).
Where [9] appears, read: Preemergence, 125 g ai/ha, 0 to 100 scale where 0 is no effect and 100 is complete control, approximately ten days.
The mark [10] stands for this setting: Preemergence, 500 g ai/ha, 0 to 100 scale where 0 is no effect and 100 is complete control, approximately ten days.

Molecules are shown by their SMILES.

Take `Nc1nc(C2CC2)nc(C(=O)OCC2CCCO2)c1Cl` (stereo not drawn) [Compound 150]: the “Plant response rating, Foxtail, Giant” value in assay [1] (setting [7]) is 80; in assay [1] (setting [8]) it was 85; in assay [1] (setting [9]), 50; in assay [1] (setting [10]), 80. For the same compound, the “Plant response rating, Velvetleaf” value was 90 in assay [2] (setting [7]), 100 in assay [2] (setting [8]), 75 in assay [2] (setting [9]) and 95 in assay [2] (setting [10]). Also, the “Plant response rating, Pigweed” value is on record as 90 in assay [3] (setting [7]), 90 in assay [3] (setting [8]), 70 in assay [3] (setting [9]) and 95 in assay [3] (setting [10]). The “Plant response rating, Barnyardgrass” value in assay [4] (setting [7]) worked out at 80; in assay [4] (setting [8]), 95; in assay [4] (setting [9]) it was 65; in assay [4] (setting [10]), 80. In addition, the “Plant response rating, Morningglory” value came to 80 in assay [5] (setting [7]), 100 in assay [5] (setting [8]), 90 in assay [5] (setting [9]) and 100 in assay [5] (setting [10]). In addition, the “Plant response rating, Crabgrass” value in assay [6] (setting [7]) amounted to 65; in assay [6] (setting [8]), 80; in assay [6] (setting [9]) it was 50; in assay [6] (setting [10]), 80.
Turning to `CCOC(=O)c1nc(-c2cccc(Cl)c2)nc(N)c1Cl` [Compound 100], the “Plant response rating, Foxtail, Giant” value in assay [1] (setting [7]), in assay [1] (setting [8]), in assay [1] (setting [9]) and in assay [1] (setting [10]) was 0 each time. The “Plant response rating, Velvetleaf” value in assay [2] (setting [7]) turned out to be 50; in assay [2] (setting [8]) it was 70; in assay [2] (setting [9]), 0; in assay [2] (setting [10]), 0. Besides, the “Plant response rating, Pigweed” value in assay [3] (setting [7]) worked out at 10; in assay [3] (setting [8]), 25; in assay [3] (setting [9]) it was 20; in assay [3] (setting [10]), 0. In addition, the “Plant response rating, Barnyardgrass” value in assay [4] (setting [7]) came to 0; in assay [4] (setting [8]) it was 10; in assay [4] (setting [9]), 5; in assay [4] (setting [10]) it was 0. Moreover, the “Plant response rating, Morningglory” value amounted to 40 in assay [5] (setting [7]), 55 in assay [5] (setting [8]), 0 in assay [5] (setting [9]) and 0 in assay [5] (setting [10]). The “Plant response rating, Crabgrass” value in assay [6] (setting [7]) was 0; in assay [6] (setting [8]) it was 0; in assay [6] (setting [9]), 10; in assay [6] (setting [10]), 0.
On to `Nc1nc(C2CC2)nc(C(=O)OCC2CO2)c1Cl` (stereo not drawn) [Compound 140], for which the “Plant response rating, Foxtail, Giant” value in assay [1] (setting [7]) is given as 85; in assay [1] (setting [8]), 90; in assay [1] (setting [9]), 40; in assay [1] (setting [10]), 85. The “Plant response rating, Velvetleaf” value in assay [2] (setting [7]) was found to be 90; in assay [2] (setting [8]), 90; in assay [2] (setting [9]), 90; in assay [2] (setting [10]), 95. Also, the “Plant response rating, Pigweed” value came out at 90 in assay [3] (setting [7]), 100 in assay [3] (setting [8]), 90 in assay [3] (setting [9]) and 95 in assay [3] (setting [10]). The “Plant response rating, Barnyardgrass” value in assay [4] (setting [7]) came to 70; in assay [4] (setting [8]), 90; in assay [4] (setting [9]), 70; in assay [4] (setting [10]), 90. The “Plant response rating, Morningglory” value is recorded as 85 in assay [5] (setting [7]), 90 in assay [5] (setting [8]), 90 in assay [5] (setting [9]) and 95 in assay [5] (setting [10]). For the same compound, the “Plant response rating, Crabgrass” value in assay [6] (setting [7]) stood at 65; in assay [6] (setting [8]) it was 80; in assay [6] (setting [9]), 70; in assay [6] (setting [10]) it was 90.
As to `CC(C)c1nc(N)c(Cl)c(C(=O)[O-])n1.[Na+]` [Compound 109], the “Plant response rating, Foxtail, Giant” value is listed as 0 in assay [1] (setting [7]), 10 in assay [1] (setting [8]), 0 in assay [1] (setting [9]) and 5 in assay [1] (setting [10]). The “Plant response rating, Velvetleaf” value in assay [2] (setting [7]) came to 25; in assay [2] (setting [8]), 80; in assay [2] (setting [9]), 15; in assay [2] (setting [10]), 50. For the same compound, the “Plant response rating, Pigweed” value in assay [3] (setting [7]) came out at 60; in assay [3] (setting [8]), 85; in assay [3] (setting [9]) it was 50; in assay [3] (setting [10]), 80. Further, the “Plant response rating, Barnyardgrass” value in assay [4] (setting [7]) is reported as 0; in assay [4] (setting [8]) it was 10; in assay [4] (setting [9]) it was 0; in assay [4] (setting [10]) it was 25. For the same compound, the “Plant response rating, Morningglory” value in assay [5] (setting [7]) was found to be 70; in assay [5] (setting [8]), 80; in assay [5] (setting [9]), 30; in assay [5] (setting [10]), 95. Besides, the “Plant response rating, Crabgrass” value in assay [6] (setting [7]) is 0; in assay [6] (setting [8]), 10; in assay [6] (setting [9]), 0; in assay [6] (setting [10]), 25.
For `CS(=O)(=O)NC(=O)c1nc(-c2ccc(Cl)cc2)nc(N)c1Cl` [Compound 131], the “Plant response rating, Foxtail, Giant” value in assay [1] (setting [7]) turned out to be 15; in assay [1] (setting [8]), 30; in assay [1] (setting [9]), 0; in assay [1] (setting [10]), 0. Moreover, the “Plant response rating, Velvetleaf” value in assay [2] (setting [7]) is listed as 35; in assay [2] (setting [8]) it was 60; in assay [2] (setting [9]), 0; in assay [2] (setting [10]) it was 0. Further, the “Plant response rating, Pigweed” value in assay [3] (setting [7]) came to 50; in assay [3] (setting [8]) it was 70; in assay [3] (setting [9]), 0; in assay [3] (setting [10]) it was 0. Further, the “Plant response rating, Barnyardgrass” value in assay [4] (setting [7]) worked out at 10; in assay [4] (setting [8]), 20; in assay [4] (setting [9]) it was 0; in assay [4] (setting [10]), 0. Besides, the “Plant response rating, Morningglory” value in assay [5] (setting [7]) is 0; in assay [5] (setting [8]), 20; in assay [5] (setting [9]), 0; in assay [5] (setting [10]), 0. Besides, the “Plant response rating, Crabgrass” value in assay [6] (setting [7]) is listed as 10; in assay [6] (setting [8]), 30; in assay [6] (setting [9]), 0; in assay [6] (setting [10]) it was 0.
